Assay results as given in patent publication US12090147B2, “Combination therapy with 2-(4-chlorophenyl)-N-((2-(2,6-dioxopiperidin-3-yl)-1-oxoisoindolin-5-yl)methyl)-2,2-difluoroacetamide” (Celgene Corporation, priority 2019, dated 2024).
Residues, ends and D or L forms follow the SMILES beside them. *: point of attachment. Cbz = O=C(OCc1ccccc1)*; CH2F = FC*

Tests used:
Format in all cases: cell-based, human
MV4-11 [1] = test: Cytokine induction, electrochemiluminescence assay of culture supernatant; details: for Effect of caspase inhibitor on secreted IL-1β induction by Compound 1: MV411, 1000 nM Compound 1 with 10 μM inhibitor
Protocol: (§1) For cytokine assays on AML cell lines, cells were seeded at 1 million per mL, 3 mL per well of 6-well plates and allowed set overnight. The next day, cells were treated with 3 μL 1000× working stock of compounds of interest.
(§2) Human AML cell lines, HL-60 (CCL-240), KG-1 (CCL-246), ML-2 (ACC-15), MOLM-13 (ACC-554), MV-4-11 (CRL-9591), NOMO-1 (ACC-542), TF-1 (CRL-2003), THP-1 (TIB-202), and U937 (CRL-1593) were obtained from American Type Culture Collection (ATCC; Manassas, VA) or Deutsche Sammlung von Mikroorganismen and Zellkulturen (DSMZ, Germany) cell banks. Acute myeloid leukemia cell lines were maintained in RPMI-1640 (ATCC Cat No. 30-2001) containing 20% fetal bovine serum (FBS) (Corning Cat No. 35-010-CV) and maintained in humidified incubators at 5% carbon dioxide.
(§3) IL-1α (Meso Scale Disgnostics, Cat No. K151RBD), IL-1β (Meso Scale Disgnostics, Cat No. K151QPD), IL-1RA (Meso Scale Disgnostics, Cat No. K151WTD), IL-18 (Meso Scale Disgnostics, Cat No. K151VJK), TNFa (Meso Scale Disgnostics, Cat No. K151QWD), VEGF Meso Scale Disgnostics, Cat No. K151RHD) levels were measured by (Meso Scale Disgnostics assay kits following manufacturer's instructions. Measurements were made on a MESO™ SECTOR S 600 plate reader (Meso Scale Disgnostics).
(§4) Cell proliferation (CTG) and caspase 3/7 activation (IncuCyte) were analyzed using GraphPad Prism. Electrochemiluminescence data was analyzed using MSD Discovery Workbench platform.
(§5) The level of intracellular pro IL-1β and released IL-1β in eight AML cell lines and normal PBMC treated with a titration of Compound 1 over a 48 hour period was assessed. (see FIGS. 1A-1C, Table 2). Supernatant IL-1βb level was induced over 5 fold in 6 out of 8 AML cell lines and normal PBMC upon Compound 1 treatment compared to DMSO (FIGS. 1A, 1B, and 1C, Table 2).

ML-2 [2] = test: as above; details: for Effect of caspase inhibitor on secreted IL-1β induction by Compound 1: 1000 nM Compound 1 with 1, 10, 100 μM inhibitor; for Secreted IL-1β in cell culture supernatant: 24, 48 and 72 hours, doses conferring similar caspase3/7 activation and viability loss; for Effect of second agent on Compound 1 induced IL-1β: ML-2 (FIG. 12)
Protocol: as §1, §2, §3, §4, §5

ML-2 cells = test: Immunoblot analysis of target proteins; details: 24, 48 and 72 hours, doses conferring similar caspase3/7 activation and viability loss
Protocol: Cells were washed in ice-cold 1×PBS twice before harvest in Cell Extraction Buffer (ThermoFisher Cat No. FNN0011) supplemented with 1× Halt Protease Inhibitor Cocktail (ThermoFisher Cat No. 78429). Whole cell extracts were collected after centrifugation at 14,000 g for 10 minutes, resolved on 4-12% Bis-Tris Novex Precast Gels (ThermoFisher Cat No. WG1403A), transferred onto a nitrocellulose membrane using the Turboblot Turbo Transfer System (Bio-Rad), and probed with the indicated primary antibodies. Bound antibodies were detected with IRDye-680 or -800 conjugated secondary antibodies using a LI-COR scanner.
Antibodies used for immunoblot: mouse anti-human GSPT-1 mAb conjugated with AL647 (clone number GSPT1-164-17G9-G6, Celgene, San Diego, CA), IL-1β (R&D Systems, Cat No. AF-201-NA), cleaved caspase 3 (Cell Signaling, Cat No. 9664S), alpha-tubulin (Cell Signaling, Cat No. 3873S), cleaved Caspase-8 (Cell Signaling, Cat No. 9748S), Caspase-1 (Cell Signaling, Cat No. 3866S), HA tag (Cell Signaling, Cat No. 3724), phosphor-eIF2a (Cell Signaling, Cat No. 9721), total eIF2a (Cell Signaling, Cat No. 9722), ATF4 (Cell Signaling, Cat No. 11815S), CHOP (Abcam, Cat No. 11419), GAPDH (Cell Signaling, Cat No. 5174), rabbit anti-mouse 800 antibody (LI-COR Biosciences), rabbit anti-mouse 680 antibody (LI-COR Biosciences), mouse anti-rabbit 680 antibody (LI-COR Biosciences), mouse anti-rabbit 800 antibody (LI-COR Biosciences)
as §5

MOLM-13 = test: Cytokine induction, electrochemiluminescence assay of culture supernatant; details: for Effect of second agent on Compound 1 induced IL-1β: MOLM13 (FIG. 13)
Protocol: as §1, §2, §3, §4, §5

MV4-11 [3] = test: as above; details: compounds at 1 μM, 72 hours
ML-2 [4] = test: as above; details: compounds at 1 μM, 72 hours
MV4-11 [5] = test: Caspase 8/FLICE activity colorimetric assay; details: compounds at 1 μM, 24, 48 and 72 hours
Protocol: (§6) Next, tests were performed to see if caspase 8 activation alone is sufficient to mediate IL-1β induction. […] To ensure caspase 8 activity was captured at an appropriate time frame, caspase 8 activation levels at 24, 48 and 72 hours were measured (FIGS. 3C and 3D) using a caspase 8/FLICE activity colorimetric assay.

ML-2 [6] = test: Caspase 8/FLICE activity colorimetric assay; details: compounds at 1 μM, 24, 48 and 72 hours
Protocol: as §6

[7] = system: Normal Peripheral Blood Mononuclear Cells; test: Cytokine induction, electrochemiluminescence assay of culture supernatant; details: PBMC
Protocol: Normal PBMCs were purchased from AllCells (Cat No. PB006F). Primary AML BMMC in were purchased from Conversant (SKU ID: BBM1000-E1110036458110215SH) or Fidelis Research (AML55, AML57, AML73, AML74, AML76, AML79, AML80, AML81, AML84, AML95). Bone marrow from health donor was purchased from StemCell Technologies (Cat No. 70001.2).
Normal PBMCs were cultured in RPMI-1640 (ATCC Cat No. 30-2001) containing 20% fetal bovine serum (Corning Cat No. 35-010-CV). Primary AML and bone marrows were cultured in Complete Medium Cytokines 1X: StemSpam™ Serum-Free Expansion Medium (StemCell Technologies Cat No. 09650) supplemented with 50 ng/mL Stem Cell Factor (Peprotech Cat No. 300-07), 50 ng/mL recombinant Human FLT3-Ligand (Peprotech Cat No. 300-19), 20 ng/mL recombinant human-interleukin-3 (Peprotech Cat No. 200-03), […] recombinant human-interleukin-6 (Peprotech Cat No. 200-06), 1 μM StemRegenin (StemCell Technologies Cat No. 72342), penicillin/streptomycin (Invitrogen Cat No. 15140122).
as §3, §4, §5

[8] = system: eight AML cell lines and normal PBMC; test: IL-1 family cytokine induction across the cell panel; details: most cell lines tested (FIG. 1B: ML-2); LPS as positive control
Protocol: as §1, §3, §5
The maturation of IL-1β can be mediated through classical caspase-1 inflammasome pathway, or a caspase-8 dependent non-canonical inflammasome signaling (Antonopoulos et al. J Biol Chem. 2015, 290(33):20167-84; Chauhan et al. Cell Rep. 2018, 25(9):2354-2368; and Schneider et al. Cell Rep. 2017, 21(13):3846-3859). To understand if classical caspase-1 mediated inflammasome pathway was activated by Compound 1, the levels of an inflammasome marker, IL-18, were tested in response to Compound 1 (FIG. 1B, Table 1), using a known inflammasome stimulant lipopolysaccharide (LPS) as positive control.

TF-1 = test: Cytokine induction, electrochemiluminescence assay of culture supernatant
Protocol: as §1, §2, §3, §4, §5

THP-1 = test: as above
Protocol: as §1, §2, §3, §4, §5

NOMO-1 = test: as above
Protocol: as §1, §2, §3, §4, §5

KG-1 = test: as above
Protocol: as §1, §2, §3, §4, §5

U937 = test: as above
Protocol: as §1, §2, §3, §4, §5

## CC(C)(C)[C@H](NC(=O)c1ccc(N)c(Cl)c1)C(=O)N1CCC[C@H]1C(=O)N[C@H](C=O)CC(=O)O [VRT043198]
MV4-11 [1]
  Effect of caspase inhibitor on secreted IL-1β induction by Compound 1: did not suppress IL-1β induction to nearly the same extent as pan- or caspase 8 inhibitors
ML-2 [2]; ML-2
  Effect of caspase inhibitor on secreted IL-1β induction by Compound 1: did not suppress IL-1β induction to nearly the same extent as pan- or caspase 8 inhibitors

## COC(=O)C[C@H](NC(=O)[C@H](C)NC(=O)[C@@H](NC(=O)OCc1ccccc1)C(C)C)C(=O)CF [Z-VAD-FMK] (Cbz-Val-Ala-Asp(OMe)-CH2F)
MV4-11 [1]
  Effect of caspase inhibitor on secreted IL-1β induction by Compound 1: significantly blocked
ML-2 [2]; ML-2
  Effect of caspase inhibitor on secreted IL-1β induction by Compound 1: significantly blocked

## CC[C@H](C)[C@H](NC(=O)OCc1ccccc1)C(=O)N[C@@H](CCC(=O)OC)C(=O)N[C@H](C(=O)N[C@@H](CC(=O)OC)C(=O)CF)[C@@H](C)O [Z-VAD-IETD] (Cbz-IE(OMe)TD(OMe)-CH2F)
MV4-11 [1]
  Effect of caspase inhibitor on secreted IL-1β induction by Compound 1: significantly blocked
ML-2 [2]; ML-2
  Effect of caspase inhibitor on secreted IL-1β induction by Compound 1: significantly blocked

## CC(C)C[C@H](NC(=O)[C@H](Cc1ccccc1)NC(=O)c1cnccn1)B(O)O [bortezomib]
ML-2 [2]; ML-2
  IL-1β induced by ER stress / unfolded protein response inducers: Low levels of IL-1β was induced
  Secreted IL-1β in cell culture supernatant: not able to induce high levels
ML-2 cells
  Intracellular pro-IL-1β (immunoblot): not able to induce high levels

## C[C@]12CCC(=O)C=C1CC[C@@H]1[C@@H]2[C@@H](O)C[C@@]2(C)[C@H]1CC[C@]2(O)C(=O)CO [cortisol]
MOLM-13
  Effect of second agent on Compound 1 induced IL-1β: can be suppressed
ML-2 [2]
  Effect of second agent on Compound 1 induced IL-1β: can be suppressed

## C[C@]12CCC(=O)C=C1CC[C@@H]1[C@@H]2C(=O)C[C@@]2(C)[C@H]1CC[C@]2(O)C(=O)CO [cortisone]
MOLM-13
  Effect of second agent on Compound 1 induced IL-1β: can be suppressed
ML-2 [2]
  Effect of second agent on Compound 1 induced IL-1β: can be suppressed

## C[C@@H]1C[C@@H]([C@H](O)CC2CC(=O)NC(=O)C2)C(=O)[C@@H](C)C1 [cycloheximide, reference compound]
ML-2 [2]; ML-2
  Secreted IL-1β in cell culture supernatant: not able to induce high levels
ML-2 cells
  Intracellular pro-IL-1β (immunoblot): not able to induce high levels

## COc1cccc2c1C(=O)c1c(O)c3c(c(O)c1C2=O)C[C@@](O)(C(C)=O)C[C@@H]3O[C@H]1C[C@H](N)[C@H](O)[C@H](C)O1 [daunorubicin, reference compound]
MV4-11 [3]
  Secreted IL-1β levels, panel of mechanistic compounds: not able to induce secreted IL-1β as efficiently as Compound 1
ML-2 [4]
  Secreted IL-1β levels, panel of mechanistic compounds: not able to induce secreted IL-1β as efficiently as Compound 1
MV4-11 [5]
  Caspase 8 activation level: higher extent of caspase 8 activation than Compound 1
ML-2 [6]
  Caspase 8 activation level: higher extent of caspase 8 activation than Compound 1

## C[C@]12C=CC(=O)C=C1CC[C@@H]1[C@@H]2[C@@H](O)C[C@@]2(C)[C@H]1CC[C@]2(O)C(=O)CO [prednisolone]
MOLM-13
  Effect of second agent on Compound 1 induced IL-1β: can be suppressed
ML-2 [2]
  Effect of second agent on Compound 1 induced IL-1β: can be suppressed

## C[C@]12C=CC(=O)C=C1CC[C@@H]1[C@@H]2C(=O)C[C@@]2(C)[C@H]1CC[C@]2(O)C(=O)CO [prednisone]
MOLM-13
  Effect of second agent on Compound 1 induced IL-1β: can be suppressed
ML-2 [2]
  Effect of second agent on Compound 1 induced IL-1β: can be suppressed

## C/C=C(/C)C(=O)O[C@H]1C(C)=C2[C@H]([C@@H]1OC(=O)CCCCCCC)[C@@](C)(OC(C)=O)C[C@H](OC(=O)CCC)[C@@]1(O)[C@H]2OC(=O)[C@@]1(C)O [thapsigargin]
ML-2 [2]; ML-2
  IL-1β induced by ER stress / unfolded protein response inducers: Low levels of IL-1β was induced
  Secreted IL-1β in cell culture supernatant: not able to induce high levels
ML-2 cells
  Intracellular pro-IL-1β (immunoblot): not able to induce high levels

## C[C@]12C=CC(=O)C=C1CC[C@H]1[C@@H]3C[C@@H](O)[C@](O)(C(=O)CO)[C@@]3(C)C[C@H](O)[C@@]12F [triamcinolone]
MOLM-13
  Effect of second agent on Compound 1 induced IL-1β: can be suppressed
ML-2 [2]
  Effect of second agent on Compound 1 induced IL-1β: can be suppressed

## Z-YVAD
MV4-11 [1]
  Effect of caspase inhibitor on secreted IL-1β induction by Compound 1: did not suppress IL-1β induction to nearly the same extent as pan- or caspase 8 inhibitors
ML-2 [2]; ML-2
  Effect of caspase inhibitor on secreted IL-1β induction by Compound 1: did not suppress IL-1β induction to nearly the same extent as pan- or caspase 8 inhibitors

## lipopolysaccharide [LPS, reference compound]
[7]
  IL-1β induction: 174.15
  IL-18 induction: 1.88
[8]
  IL-18 levels (inflammasome marker): profound IL-18 induction at early time point (6 hrs)
TF-1
  IL-1β induction: 1.12
  IL-18 induction: 1.41
THP-1
  IL-1β induction: 96.62
  IL-18 induction: 12.13
MV4-11 [1]; MV4-11
  IL-1β induction: 65.19
  IL-18 induction: 24.45
NOMO-1
  IL-1β induction: 3.11
  IL-18 induction: 1.77
KG-1
  IL-1β induction: 17.67
  IL-18 induction: 3.47
U937
  IL-1β induction: 1.44
  IL-18 induction: 1.28
MOLM-13; MOLM-13
  IL-1β induction: 0.00
ML-2 [2]; ML-2
  IL-1β induction: 8.70
  IL-18 induction: 1.21
